Assay results published in PubChem BioAssay (NCI).
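Method: 48-hour compound exposure of cells in 96-well plates, five concentrations, linear interpolation of endpoints. TGI is the concentration that stops growth completely.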

Legend:
Test in all cases: NCI tumour cell line growth inhibition, 48 h
BT-549 breast = system: BT-549 breast
MDA-N = system: MDA-N
NCI-H23 lung = system: NCI-H23 lung
SF-539 CNS = system: SF-539 CNS
KM12 colon = system: KM12 colon
NCI-H522 lung = system: NCI-H522 lung
U251 CNS = system: U251 CNS
UACC-257 melanoma = system: UACC-257 melanoma
MALME-3M melanoma = system: MALME-3M melanoma
HCT-116 colon = system: HCT-116 colon
NCI-H226 lung = system: NCI-H226 lung
OVCAR-8 ovarian = system: OVCAR-8 ovarian
EKVX NSCLC = system: EKVX NSCLC
ACHN renal = system: ACHN renal
MDA-MB-231 breast = system: MDA-MB-231 breast
A498 renal = system: A498 renal
NCI/ADR-RES ovarian = system: NCI/ADR-RES ovarian
MDA-MB-435 = system: MDA-MB-435
HCT-15 colon = system: HCT-15 colon
MCF7 breast = system: MCF7 breast
OVCAR-4 ovarian = system: OVCAR-4 ovarian
SK-MEL-28 melanoma = system: SK-MEL-28 melanoma
SK-MEL-5 melanoma = system: SK-MEL-5 melanoma
SNB-19 CNS = system: SNB-19 CNS
SR leukemia = system: SR leukemia
CAKI-1 renal = system: CAKI-1 renal
NCI-H460 lung = system: NCI-H460 lung
LOX IMVI melanoma = system: LOX IMVI melanoma
SF-268 CNS = system: SF-268 CNS
M14 melanoma = system: M14 melanoma
RXF 393 renal = system: RXF 393 renal
UACC-62 melanoma = system: UACC-62 melanoma
K-562 leukemia = system: K-562 leukemia
A549 NSCLC = system: A549 NSCLC
786-0 renal = system: 786-0 renal
TK-10 renal = system: TK-10 renal
DU-145 prostate = system: DU-145 prostate
IGROV1 ovarian = system: IGROV1 ovarian
SW-620 colon = system: SW-620 colon
COLO 205 colon = system: COLO 205 colon
SN12C renal = system: SN12C renal
OVCAR-5 ovarian = system: OVCAR-5 ovarian
HOP-92 NSCLC = system: HOP-92 NSCLC
SK-MEL-2 melanoma = system: SK-MEL-2 melanoma
UO-31 renal = system: UO-31 renal
MOLT-4 leukemia = system: MOLT-4 leukemia
RPMI-8226 leukemia = system: RPMI-8226 leukemia
OVCAR-3 ovarian = system: OVCAR-3 ovarian
HT29 colon = system: HT29 colon
HCC-2998 colon = system: HCC-2998 colon
SF-295 CNS = system: SF-295 CNS
HOP-62 NSCLC = system: HOP-62 NSCLC
PC-3 prostate = system: PC-3 prostate
HS 578T breast = system: HS 578T breast
HL-60(TB) leukemia = system: HL-60(TB) leukemia

Measured: TGI

C=C(C)C[C@H](Sc1nc2ccccc2s1)[C@H](C)O
43 µM: MOLT-4 leukemia
79 µM: A498 renal
98.4 µM: RPMI-8226 leukemia
44.9 µM: HL-60(TB) leukemia
69.9 µM: SK-MEL-2 melanoma
74.1 µM: NCI-H226 lung
75.7 µM: OVCAR-3 ovarian
36.8 µM: SK-MEL-5 melanoma
72 µM: MALME-3M melanoma
81.9 µM: NCI-H522 lung
63.8 µM: PC-3 prostate
> 100 µM: all other assays above
